The record followed here is patent US12496304B2, “Selective glucocorticoid receptor modifiers for treating impaired skin wound healing” (AKRIBES BIOMEDICAL GMBH, priority 2019, dated 2025).

For assay [1], the system named is IL-8. Description: Primary human monocyte cytokine secretion assay (spontaneous IL-8). Type of assay: cell-based. The conditions noted are these: 16 hours (FIG. 16B). On the procedure:
Primary human monocytes were prepared from peripheral blood mononuclear cells (PBMC). PBMC were isolated from buffy coats obtained from the Red Cross, Vienna, using LymphoPrep (Technoclone). 30 ml of buffy concentrate was diluted 1:2 with PBS, gently underlayered with 15 ml Lymphoprep in a 50 ml Falcon tube and centrifuged for 25 minutes at 1800 rpm at 21° C. The interphase was carefully transferred to a new Falcon tube and filled up to 50 ml with ice cold PBS. After another centrifugation step (10 minutes, 1200 rpm, 4° C.), the cell pellet was washed 3 times with PBS, resuspended in RPMI medium containing 20% FCS and 10% DMSO and frozen in liquid nitrogen. Monocytes were generated from frozen aliquots using positive selection with the CD14 Beads-Kit (Miltenyi) on an autoMACS-Sorter (Miltenyi) according to the manufacturer's instructions.
Cells were seeded at 8×10^5/ml in 50 μl/well of a 384-well plate and combined cells with graded concentrations of test compounds. After 16 hours, the supernatants were transferred to fresh plates and frozen at −20° C. for IL-8 analysis, using a commercial ELISA kit.

Assay [2] has as its system IL-8. Description: U937 cell stimulation assay (LPS-induced IL-8). In kind it is cell-based, human. The conditions noted are these: LPS 100 ng/ml, 16 hours (FIG. 16A). On the procedure:
The human monocytic cell line U937 (ATCC CRL 1593) was routinely grown in RPMI_1640 supplemented by 10% FCS and 2 mM glutamine, and 100 U/ml penicillin/100 μg/ml streptomycin. Cells were seeded at 4×10^5/ml in 50 μl/well of a 384-well plate and combined cells with graded concentrations of test compounds and LPS at 100 ng/ml. After 16 hours, the supernatants were transferred to fresh plates and frozen at −20° C. for IL-8 analysis, using a commercial ELISA kit.

The subject of a further assay is Collagen 1a. Description: mRNA expression in fibroblast cultures (qRT-PCR): collagen 1. In kind it is cell-based, human. The method, then: (§1) Cells were seeded into 24-well plates and incubated with compounds in the presence or absence of wound exudates for 72 hours. Total RNA was isolated using the RNeasy Mini Kit (QIAGEN #74106) according to the manufacturer's protocol. RNA integrity and concentration for each sample was confirmed and measured with the Qubit fluorometer. Each RNA sample was then diluted to 2 ng/μl in nuclease-free doubly distilled water.
(§2) 20 ng of total RNA were reverse-transcribed into cDNA and immediately subjected to PCR amplification using the SuperScript Ill Platinum One-Step Quantitative RT-PCR System with ROX (Invitrogen #11745). qRT-PCR amplifications were performed in 20 μl reactions containing 9 μl 2× Reaction Mix with ROX, 0.4 μl SuperScript III RT/Platinum Taq Mix and 1 μl primer (final: 900 nM, Taqman Gene Expression Assay, Applied Biosystems)
(§3) The program included 30 minutes of reverse transcription at 48° C., an initial denaturation for 5 minutes at 95° C. followed by 40 cycles of denaturation at 95° C. for 15 seconds and annealing at 60° C. for 60 seconds. Reactions were set up in 96-well format PCR plates (Peqlab #732-2879) and carried out in a Mx3005P Real-Time PCR Detection System (Stratagene).
(§4) TaqMan Gene Expression Assays (Applied Biosystems) were used, which include preoptimized probe and primer sets specific for the genes being validated. The sequences and ID numbers are listed below:
(§5) The house keeping gene elongation factor 1a (EF1a) was used as a reference gene. Normalized expression was calculated using the comparative Ct (or ΔCt) method, and fold changes were derived from the 2-ΔΔCt values for each gene. Graphs were prepared using relative Ct values that were calculated by subtracting the EF1a Ct values from the corresponding Ct values for the gene being measured.
Background: In qPCR the cycle at which signal appears reflects the starting amount.

Assay [3] relates to human dermal fibroblast (HDF) cells. Briefly: Fibroblast-derived matrix formation (FDM) assay, 3D fibroblast culture. In kind it is cell-based. The method, then: Human dermal fibroblast (HDF) cells were seeded at 1250 cells/well on day −3 into 384-well tissue culture plates, which had been pre-coated for 1 hour at 37° C. with 0.2% gelatin solution (Sigma). When the cells reached confluence (=day 0), a matrix promoting supplement (vitamin C: 2-phospho-L-ascorbic acid trisodium salt, 100 μg/ml; Sigma) was added together with test samples containing TGF-β1 or graded concentrations of compounds −/+WE as described for the HDF proliferation assay. After 4 days, medium was replaced by fresh vitamin C—and stimulus—as well as compound-containing medium, maintaining the conditions initiated on day 0. TGF-β1 was included as a positive control to promote FDM formation. After a total incubation time of 7 to 8 days, FDM production was measured in fixed cultures via SRB staining and evaluated as described above. In some cases, the experiment was stopped and evaluated already on day 4.

Another assay concerns Collagen 3a. Description: mRNA expression in fibroblast cultures (qRT-PCR): collagen 3. Type of assay: cell-based, human. The method, then:
as §1, §2, §3, §4, §5

A further assay relates to IL-1β. Description: IL-1β secretion into the supernatant in the fibroblast proliferation assay (ELISA). Conditions: WE-1 (FIG. 2B, 9B), graded concentrations. In kind it is cell-based, human. On the procedure: Primary human dermal fibroblasts (HDF) were purchased from CELLnTEC, Bern. They were routinely grown in Dulbecco's modified Eagle's medium (DMEM) containing 10% FCS, 2 mM glutamine, and 100 U/ml penicillin/100 μg/ml streptomycin. Media, antibiotics, and glutamine were bought from Lonza. The cells were used at passage 5-15. Cells were trypsinized and seeded at 2500 cells/well in 30 μl into the inner wells of 384-well plates in the absence or presence of graded compound concentrations with or without different dilutions of sterile-filtered WE in medium. For control samples, 30 μl medium was added instead of specific stimuli. The outer wells were loaded with sterile water. The cells were incubated for 72 hours at 37° C.
At the end of the incubation period, supernatants were removed for the determination of IL-1β, and the cells were fixed with 4% paraformaldehyde (Morphisto) for 15 minutes at room temperature and washed 3 times with PBS. A control plate was fixed after the overnight adherence of the cells (day 1) to determine the starting cell number.
IL-1β levels were determined with a commercial ELISA kit. The amount of IL-1β contained in the wound exudate added to the cells was subtracted from the total IL-B in the supernatants in order to determine the cytokine secreted by the cells.
(In general: ELISA stands for enzyme-linked immunosorbent assay.)

Setting [4] is: medium in the absence of WE, 72-hour incubation.

In the case of `CCS(=O)(=O)c1cc2cc(C[C@@](O)(CC(C)(C)c3ccc(F)cc3C(N)=O)C(F)(F)F)[nH]c2cn1` [BI-3047], the “spontaneous IL-8 secretion in human monocytes” value with IL-8 [1] is listed as “even induced IL-8 secretion at the highest concentrations”. Also, the “LPS-induced IL-8 secretion in U937 cells” value with IL-8 [2] is reported as “even induced IL-8 secretion at the highest concentrations”. The “collagen 1 mRNA expression” value in the assay on Collagen 1a (setting [4]) was “no significant effect on collagen 1 mRNA in the presence of medium”. In assay [3] (WE from patient #92 (FIG. 12)), the “formation of fibroblast-derived matrix (3D)” value is reported as “did not induce matrix formation”. Further, the “collagen 3 mRNA expression” value with Collagen 3a (setting [4]) is recorded as “reduction of collagen 3 mRNA with medium”. Besides, in the assay on IL-1β, the “IL-1β secretion into the supernatant” value is “much less effect on IL-1β secretion”.

As for `CCS(=O)(=O)c1cc2cc(C[C@](O)(CC(C)(C)c3ccc(F)cc3C(N)=O)C(F)(F)F)[nH]c2cn1` [BI-653048, (R)-2-(4-((5-(Ethylsulfonyl)-1H-pyrrolo[2,3-c]pyridin-2-yl)methyl)-5,5,5-trifluoro-4-hydroxy-2-methylpentan-2-yl)-5-fluorobenzamide], the “spontaneous IL-8 secretion in human monocytes” value in the assay with IL-8 [1] was “inhibited both LPS-induced and spontaneous IL-8 secretion”. The “LPS-induced IL-8 secretion in U937 cells” value with IL-8 [2] is “inhibited both LPS-induced and spontaneous IL-8 secretion”. For the same compound, the “collagen 1 mRNA expression” value in the assay with Collagen 1a (WE-2, 1 μM, 72-hour incubation (FIG. 3A)) is “induced mRNA expression of both collagens 1 and 3 in the presence of wound exudate”; in the assay with Collagen 1a (setting [4]) it was “no significant effect on collagen 1 mRNA in the presence of medium”. The “formation of fibroblast-derived matrix (3D)” value in assay [3] (WE-1, graded concentrations (FIG. 4)) is “effective in inducing matrix formation in the presence of wound exudate”. Further, the “collagen 3 mRNA expression” value in the assay with Collagen 3a (WE-2, 1 μM, 72-hour incubation (FIG. 3B)) was “induced mRNA expression of both collagens 1 and 3 in the presence of wound exudate”; in the assay on Collagen 3a (setting [4]) it was “reduction of collagen 3 mRNA with medium”. The “IL-1β secretion into the supernatant” value in the assay with IL-1β is listed as “inhibited IL-1β secretion at the same concentrations”.
